The source of these data is US11440909B2, “10H-phenothiazine ferroptosis inhibitor as well as the preparative method and the use thereof” (CHENGDU HENGHAO INVESTMENT CO. LIMITED, priority 2018, dated 2022).

One assay relates to fibrosarcoma cell line HT1080. As to the kind of experiment: Ferroptosis screening model (MTT method), Erastin-induced ferroptosis. The assay is classed as cell-based, human. To be noted: HT1080, ferroptosis inducer Erastin, 72 h, average of three tests, read-out: EC50. How it is done: The screening model for ferroptosis mainly used MTT method. First, the fibrosarcoma cell line HT1080 was cultured in a dish, and the cells in the logarithmic growth phase were inoculated into a 96-well plate in a certain number (3000-10000 cells/well), 100 μL per well, and then the plate was put in an 5% CO2 incubator at 37° C., to allow the cells to adhere. After 24 h, 100 μL compound solution at a certain concentration prepared in the designated medium and ferroptosis inducer Erastin (with a final concentration of […]) were added, setting 3 replicate wells for each compound to ensure the accuracy of the results, and a negative control group, a positive control group (Fer-15 μM), a blank control group and a solvent control group were included. After addition of drugs, the plate was placed in an incubator and cultivated for 72 h. On the day of MTT experiment, MTT test solution (5 mg/mL MTT solution dissolved in physiological saline, and stored in the dark at 4° C.) was pre-prepared and 20 μL MTT solution was added to each well, then the plate was put in an incubator and continued to incubate for 2-4 h. After that, 50 μL of 20% SDS solution (dissolved in MiliiQ water, added with 1% concentrated hydrochloric acid) was added to each well and kept in an incubator overnight. On the next day, the absorbance at 570 nm was measured with a microplate reader, to calculate the inhibition rate of drugs on ferroptosis. Generally, the absorbance value of the control group should be in the range of 0.8-1.2 as a normal value.
GraphPadPrism5 software was used to fit the change curve of inhibition rate and calculate the EC50.
A general note: Formazan colour is commonly taken as a measure of viable cells.
As for `C=C(c1ccc(N2CCOCC2)cc1)c1ccc2c(c1)Nc1ccccc1S2` [Compound B15, 4-(4-(1-(10H-phenothiazin-2-yl)ethenyl)phenyl)morpholine], the 50% effective concentration (EC50) came to 0.68 µM.

With `C=C(c1ccc(C(=O)N2CCOCC2)cc1)c1ccc2c(c1)Nc1ccccc1S2` [Compound B47, (4-(1-(10H-phenothiazin-2-yl)ethenyl)phenyl)(morpholine)ketone], the EC50 was 0.024 µM.

For `C=C(c1cnc(N2CCOCC2)nc1)c1ccc2c(c1)Nc1ccccc1S2` [Compound B51, 4-(5-(1-(10H-phenothiazin-2-yl)ethenyl)pyrimidin-2-yl)morpholine], the concentration for a half-maximal effect (EC50) was found to be 0.01 µM.

Still in this assay, the particulars now being: Homo sapiens, HT-1080, 72 h, HT1080, ferroptosis inducer Erastin, 72 h, average of three tests, read-out: EC50.
On to `C=C(c1ccc2c(c1)Nc1ccccc1S2)c1ccccc1N` [Compound B16, 2-(1-(10H-phenothiazin-2-yl)ethenyl)phenylamine], for which the EC50 was 0.029 µM.

With `C=C(c1cccc(N)c1)c1ccc2c(c1)Nc1ccccc1S2` [Compound B17, 3-(1-(10H-phenothiazin-2-yl)ethenyl)phenylamine], the 50% effective concentration (EC50) was 0.017 µM.

With `C=C(c1cccc(O)c1)c1ccc2c(c1)Nc1ccccc1S2` [Compound B18, 3-(1-(10H-phenothiazin-2-yl)ethenyl)phenol], the EC50 came out at 0.04 µM.

As to `C=C(c1cccc([N+](=O)[O-])c1)c1ccc2c(c1)Nc1ccccc1S2` [Compound B19, 2-(1-(3-nitrophenyl)ethenyl)-10H-phenothiazine], the 50% effective concentration (EC50) was 0.013 µM.

As to `C=C(c1cccc(S(N)(=O)=O)c1)c1ccc2c(c1)Nc1ccccc1S2` [Compound B20, 3-(1-(10H-phenothiazin-2-yl)ethenyl)benzenesulfonamide], the EC50 was found to be 0.01 µM.

For `C=C(c1cccc(OC)c1)c1ccc2c(c1)Nc1ccccc1S2` [Compound B21, 2-(1-(3-methoxylphenyl)ethenyl)-10H-phenothiazine], the concentration giving a half-maximal response (EC50) came to 0.011 µM.

Regarding `C=C(c1cccc(OC(F)(F)F)c1)c1ccc2c(c1)Nc1ccccc1S2` [Compound B22, 2-(1-(3-trifluoromethoxylphenyl)ethenyl)-10H-phenothiazine], the EC50 worked out at 0.03 µM.

On to `C=C(c1cccc(OC(C)C)c1)c1ccc2c(c1)Nc1ccccc1S2` [Compound B23, 2-(1-(3-isopropoxylphenyl)ethenyl)-10H-phenothiazine], for which the concentration giving a half-maximal response (EC50) was found to be 0.048 µM.

In the case of `C=C(c1cccc(C)c1)c1ccc2c(c1)Nc1ccccc1S2` [Compound B24, 2-(1-(m-methylphenyl)ethenyl)-10H-phenothiazine], the EC50 was 0.031 µM.

Regarding `C=C(c1cccc(C(C)(C)C)c1)c1ccc2c(c1)Nc1ccccc1S2` [Compound B25, 2-(1-(3-t-butylphenyl)ethenyl)-10H-phenothiazine], the EC50 came out at 0.016 µM.

Take `C=C(c1cccc(C(N)=O)c1)c1ccc2c(c1)Nc1ccccc1S2` [Compound B26, 3-(1-(10H-phenothiazin-2-yl)ethenyl)benzamide]: the EC50 was determined as 0.016 µM.

Take `C=C(c1cccc(C(C)C)c1)c1ccc2c(c1)Nc1ccccc1S2` [Compound B27, 2-(1-(3-isopropylphenyl)ethenyl)-10H-phenothiazine]: the EC50 was 0.038 µM.

Turning to `C=C(c1cccc(C(=O)OCC)c1)c1ccc2c(c1)Nc1ccccc1S2` [Compound B28, ethyl3-(1-(10H-phenothiazin-2-yl)ethenyl)benzoic acid], the EC50 was 0.027 µM.

`C=C(c1cccc(-c2ccccc2)c1)c1ccc2c(c1)Nc1ccccc1S2` [Compound B29, 2-(1-([1,1′-diphenyl]-3-yl)ethenyl)-10H-phenothiazine]: the EC50 came to 0.041 µM.

With `C=C(c1cccc(C(F)(F)F)c1)c1ccc2c(c1)Nc1ccccc1S2` [Compound B30, 2-(1-(3-(trifluoromethyl)phenyl)ethenyl)-10H-phenothiazine], the EC50 stood at 0.045 µM.

On to `C=C(c1cccc(C(=O)OC)c1)c1ccc2c(c1)Nc1ccccc1S2` [Compound B31, methyl 3-(1-(10H-phenothiazin-2-yl)ethenyl)benzoic acid], for which the concentration for a half-maximal effect (EC50) was determined as 0.051 µM.

On to `C=C(c1cccc(C#N)c1)c1ccc2c(c1)Nc1ccccc1S2` [Compound B32, 3-(1-(10H-phenothiazin-2-yl)ethenyl)benzonitrile], for which the half-maximal effective concentration (EC50) amounted to 0.089 µM.

On to `C=C(c1cccc(C(=O)c2ccccc2)c1)c1ccc2c(c1)Nc1ccccc1S2` [Compound B33, (3-(1-(10H-phenothiazin-2-yl)ethenyl)phenyl)benzophenone], for which the EC50 is 0.111 µM.

Regarding `C=C(c1cccc(C(F)F)c1)c1ccc2c(c1)Nc1ccccc1S2` [Compound B34, 2-(1-(3-(difluoromethyl)phenyl)ethenyl)-10H-phenothiazine], the EC50 was 0.011 µM.

As to `C=C(c1cccc(OCc2ccccc2)c1)c1ccc2c(c1)Nc1ccccc1S2` [Compound B35, 2-(1-(3-(benzyloxyl)phenyl)ethenyl)-10H-phenothiazine], the half-maximal effective concentration (EC50) amounted to 0.053 µM.

As for `C=C(c1cccc(N2CCOCC2)c1)c1ccc2c(c1)Nc1ccccc1S2` [Compound B36, 4-(3-(1-(10H-phenothiazin-2-yl)ethenyl)phenyl)morpholine], the half-maximal effective concentration (EC50) was 0.03 µM.

Turning to `C=C(c1ccc(C#N)c(C)c1)c1ccc2c(c1)Nc1ccccc1S2` [Compound B37, 4-(1-(10H-phenothiazin-2-yl)ethenyl)-2-methylbenzonitrile], the EC50 was determined as 0.014 µM.

As for `C=C(c1ccc([N+](=O)[O-])c(C)c1)c1ccc2c(c1)Nc1ccccc1S2` [Compound B38, 2-(1-(3-methyl-4-nitrophenyl)ethenyl)-10H-phenothiazine], the EC50 was found to be 0.035 µM.

As to `C=C(c1ccc2c(c1)Nc1ccccc1S2)c1ccc(OC)c(OC)c1` [Compound B39, 2-(1-(3,4-dimethoxylphenyl)ethenyl)-10H-phenothiazine], the concentration giving a half-maximal response (EC50) was 0.023 µM.

Regarding `C=C(c1ccc(C#N)c(F)c1)c1ccc2c(c1)Nc1ccccc1S2` [Compound B40, 4-(1-(10H-phenothiazin-2-yl)ethenyl)-2-fluorobenzonitrile], the EC50 was 0.041 µM.

On to `C=C(c1cc(C(C)(C)C)cc(C(C)(C)C)c1)c1ccc2c(c1)Nc1ccccc1S2` [Compound B41, 2-(1-(3,5-di-t-butylphenyl)ethenyl)-10H-phenothiazine], for which the EC50 amounted to 0.905 µM.

`C=C(c1ccc(NC(C)=O)nc1)c1ccc2c(c1)Nc1ccccc1S2` [Compound B43, N-(5-(1-(10H-phenothiazin-2-yl)ethenyl)pyridin-2-yl)acetylamine]: the concentration for a half-maximal effect (EC50) worked out at 0.004 µM.

For the compound `C=C(c1ccc(N)nc1)c1ccc2c(c1)Nc1ccccc1S2` [Compound B44, 5-(1-(10H-phenothiazin-2-yl)ethenyl)pyridin-2-amine], the EC50 came to 0.011 µM.

Regarding `C=C(c1ccc(N2CCOCC2)nc1)c1ccc2c(c1)Nc1ccccc1S2` [Compound B45, 4-(5-(1-(10H-phenothiazin-2-yl)ethenyl)pyridin-2-yl)morpholine], the EC50 was 0.013 µM.

`C=C(c1ccc2c(c1)Nc1ccccc1S2)c1ccc(C(=O)Nc2ccc(CN3CCN(C)CC3)c(C(F)(F)F)c2)cc1C` [Compound B46, 4-(1-(10H-phenothiazin-2-yl)ethenyl)-3-methyl-N-(4-((4-methylpiperazin-1-yl)methyl)-3-(trifluoromethyl)phenyl)benzamide]: the half-maximal effective concentration (EC50) turned out to be 0.01 µM.

`C=C(c1ccc(C(=O)N2CCN(C)CC2)cc1)c1ccc2c(c1)Nc1ccccc1S2` [Compound B48, (4-(1-(10H-phenothiazin-2-yl)ethenyl)phenyl)(4-methylpiperazin-1-yl)ketone]: the EC50 was 0.013 µM.

In the case of `C=C(c1cnc(N2CCN(C)CC2)nc1)c1ccc2c(c1)Nc1ccccc1S2` [Compound B49, 2-(1-(2-(4-methylpiperazin-1-yl)pyrimidin-5-yl)ethenyl)-10H-phenothiazine], the concentration giving a half-maximal response (EC50) is 0.002 µM.

Take `C=C(c1cnc(N2CCCN(C)CC2)nc1)c1ccc2c(c1)Nc1ccccc1S2` [Compound B50, 2-(1-(2-(4-methyl-1,4-homopiperazin-1-yl)pyrimidin-5-yl)ethenyl)-10H-phenothiazine]: the EC50 came out at 0.004 µM.

Regarding `C=C(c1ccc(S(=O)(=O)NC2CCOCC2)cc1)c1ccc2c(c1)Nc1ccccc1S2` [Compound B52, 4-(1-(10H-phenothiazin-2-yl)ethenyl)-N-(tetrahydro-2H-pyran-4-yl)benzenesulfonamide], the EC50 worked out at 0.011 µM.

Take `C=C(c1cccc(S(=O)(=O)NC(C)(C)C)c1)c1ccc2c(c1)Nc1ccccc1S2` [Compound B53, 3-(1-(10H-phenothiazin-2-yl)ethenyl)-N-(t-butyl)Benzenesulfonamide]: the half-maximal effective concentration (EC50) was 0.148 µM.

`C=C(c1ccc(S(=O)(=O)N2CCCC2)cc1)c1ccc2c(c1)Nc1ccccc1S2` [Compound B54, 2-(1-(4-(pyrrolin-1-ylsulfonyl)phenyl)ethenyl)-10H-phenothiazine]: the EC50 was 0.032 µM.

The same assay, now with this note: Homo sapiens, HT-1080, HT1080, ferroptosis inducer Erastin, 72 h, average of three tests, read-out: EC50.
Take `C=C(c1ccc2c(c1)Nc1ccccc1S2)c1cc(OC)c(OC)c(OC)c1` [Compound B42, 2-(1-(3,4,5-trimethoxylphenyl)ethenyl)-10H-phenothiazine]: the concentration for a half-maximal effect (EC50) came out at 0.045 µM.

In general, EC50 refers to the concentration that produces a half-maximal response.
